Patent publication US12371454B2, “Cyclic peptide compound having Kras inhibitory action” (priority 2019, dated 2025)
Starred links: 1 amine or outer side, 2 acyl side, 3 side chain; linkers in the order of their positions; H or OH if unused. Positions of bridges follow the written chain, without caps; N, C: chain ends. Non-standard residues stand in square brackets, D forms with d. Residues, ends and D or L forms follow the SMILES beside them. *: point of attachment. hPhe(3-Cl-4-CF3) = N[C@@H](CCc1ccc(C(F)(F)F)c(Cl)c1)C(=O)O; NMePhe(4-CF3) = CN[C@@H](Cc1ccc(C(F)(F)F)cc1)C(=O)O; 3Oxa8azabicyclo(3.2.1)octane = C1CC2COCC1N2*; NMeAbu(4,4,4-F3) = CN[C@@H](CC(F)(F)F)C(=O)O; NMePhe(4-Br) = CN[C@@H](Cc1ccc(Br)cc1)C(=O)O; NMePhe(4-Me) = CN[C@@H](Cc1ccc(C)cc1)C(=O)O; X33 = Cc1ccc(CC[C@H](N[*:1])C(=O)[*:2])cc1; NMedβ3hAla = C[C@H](CC(=O)[*:2])N(C)[*:1]; NMeAla(cPent) = CN[C@@H](CC1CCCC1)C(=O)O; NMeAla(cPr) = CN[C@@H](CC1CC1)C(=O)O; NMeGly(cBu) = CN[C@H](C(=O)O)C1CCC1; NMeCha = CN[C@@H](CC1CCCCC1)C(=O)O; NMeChg = CN[C@H](C(=O)O)C1CCCCC1; NMeI = CC[C@H](C)[C@H](NC)C(=O)O; Piperidide(4-Me) = CC1CCN(*)CC1; NMeD = CN[C@@H](CC(=O)O)C(=O)O; NMeL = CN[C@@H](CC(C)C)C(=O)O; NMeNva = CCC[C@H](NC)C(=O)O; NMeV = CN[C@H](C(=O)O)C(C)C; d(β3hA) = C[C@@H](N)CC(=O)O; NMeAbu = CC[C@H](NC)C(=O)O; NMeS = CN[C@@H](CO)C(=O)O; NMeA = CN[C@@H](C)C(=O)O; Piperidide = C1CCN(*)CC1; Pyrrolidide = C1CCN(*)C1; Ac5c = NC1(C(=O)O)CCCC1; Ac3c = NC1(C(=O)O)CC1; Sar = CNCC(=O)O; Propyl = CCC*

Key:
[1] = molecular target: T1, Kras and SOS1 (biotin-tagged human Kras loaded with GDP, His-tagged human SOS1) (Homo sapiens, UniProt P01116, G12D); test: Protein-protein interaction inhibition between Kras and SOS1 (KrasGl2D-SOS PPI) using AlphaScreen; format: binding; conditions: AlphaScreen; biotin-tagged human Kras loaded with GDP, His-tagged human SOS1; read-out: KRAS G12D-SOS PPI IC50
T1 construct: made in house; host or cells: E. coli (stated for Kras only)
T1 sequence (P01116 1-188 isoform P01116-2 G12D): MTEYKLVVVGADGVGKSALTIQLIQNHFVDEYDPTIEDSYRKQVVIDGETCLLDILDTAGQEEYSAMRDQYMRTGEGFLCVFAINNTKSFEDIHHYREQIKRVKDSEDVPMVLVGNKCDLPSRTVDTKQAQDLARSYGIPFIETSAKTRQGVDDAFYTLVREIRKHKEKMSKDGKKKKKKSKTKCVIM
Outline: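 Binding between SOS1 and Kras is detected as bead-proximity luminescence: illuminate Ni-conjugated donors (680 nm), collect 520-620 nm emission from streptavidin-conjugated acceptors; Kras carries biotin and GDP loaded after purification, SOS1 carries a His tag.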

[2] = system: Human pancreatic cancer cell line AsPC-1; test: Measurement of AsPC-1 cell growth inhibition (AsPC-1 CGI); format: cell-based; conditions: 96 h
Outline: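 AsPC-1 cells in 15% FBS RPMI-1640 were exposed to test compound for 96 hours at 37° C, with CellTiter-Glo as endpoint.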

Structure (SMILES)	IC50 [1]	IC50 [2]
CC[C@H](C)[C@@H]1NC(=O)[C@H](CC(C)C)N(C)C(=O)C[C@@H](C(=O)N2CCC(C)CC2)NC(=O)[C@H]([C@@H](C)CC)N(C)C(=O)C2(CCCC2)NC(=O)[C@@H]2CCCN2C(=O)[C@H](CCc2ccc(C(F)(F)F)c(Cl)c2)NC(=O)CN(C)C(=O)[C@H](CC2CCCCC2)N(C)C(=O)CN(C)C(=O)CN(C)C1=O [Compound 1172] ([NMeL]I[Sar][Sar][NMeCha][Sar][hPhe(3-Cl-4-CF3)]P[Ac5c][NMeI]D-{Piperidide(4-Me)}; lactam N-11)	6.8 nM	100 to 500 nM
CC(C)C[C@H]1C(=O)N[C@@H](C(C)C)C(=O)N(C)CC(=O)N(C)CC(=O)N(C)[C@@H](CC2CCCCC2)C(=O)N(C)CC(=O)N[C@@H](CCc2ccc(C(F)(F)F)c(Cl)c2)C(=O)N2CCC[C@H]2C(=O)NC2(CCCC2)C(=O)N(C)[C@@H](C2CCCCC2)C(=O)N(C)[C@H](C(=O)N2CCCCC2)CC(=O)N1C [Compound 1798] ([NMeL]V[Sar][Sar][NMeCha][Sar][hPhe(3-Cl-4-CF3)]P[Ac5c][NMeChg][NMeD]-Piperidide; lactam N-11)	1 nM	50 to 100 nM
CC[C@H](C)[C@@H]1NC(=O)[C@H](CC(C)C)N(C)C(=O)C[C@@H](C(=O)N2CCCCC2)N(C)C(=O)[C@H](CC2CCCC2)N(C)C(=O)C2(CCCC2)NC(=O)[C@@H]2CCCN2C(=O)[C@H](CCc2ccc(C(F)(F)F)c(Cl)c2)NC(=O)CN(C)C(=O)[C@H](CC2CCCCC2)N(C)C(=O)CN(C)C(=O)CN(C)C1=O [Compound 30] ([NMeL]I[Sar][Sar][NMeCha][Sar][hPhe(3-Cl-4-CF3)]P[Ac5c][NMeAla(cPent)][NMeD]-Piperidide; lactam N-11)	4.6 nM	100 to 500 nM
CC[C@H](C)[C@@H]1NC(=O)[C@H](C2CCC2)N(C)C(=O)C[C@@H](C(=O)N2C3CCC2COC3)N(C)C(=O)[C@H](C2CCCCC2)N(C)C(=O)C2(CCCC2)NC(=O)[C@@H]2CCCN2C(=O)[C@H](CCc2ccc(C(F)(F)F)c(Cl)c2)NC(=O)CN(C)C(=O)[C@H](CC2CCCCC2)N(C)C(=O)CN(C)C(=O)CN(C)C1=O [Compound 701] ([NMeGly(cBu)]I[Sar][Sar][NMeCha][Sar][hPhe(3-Cl-4-CF3)]P[Ac5c][NMeChg][NMeD]-{3Oxa8azabicyclo(3.2.1)octane}; lactam N-11)	0.69 nM	50 to 100 nM
CCC[C@H]1C(=O)N[C@@H]([C@@H](C)CC)C(=O)N(C)CC(=O)N(C)CC(=O)N(C)[C@@H](Cc2ccc(C(F)(F)F)cc2)C(=O)N(C)CC(=O)N[C@@H](CCc2ccc(C(F)(F)F)c(Cl)c2)C(=O)N2CCC[C@H]2C(=O)NC2(CCCC2)C(=O)N(C)[C@@H](C2CCCCC2)C(=O)N(C)[C@H](C(=O)N2CCCC2)CC(=O)N1C [Compound 1984] ([NMeNva]I[Sar][Sar][NMePhe(4-CF3)][Sar][hPhe(3-Cl-4-CF3)]P[Ac5c][NMeChg][NMeD]-Pyrrolidide; lactam N-11)	0.38 nM	20 to 50 nM
CC[C@H](C)[C@@H]1NC(=O)[C@H](CC(C)C)N(C)C(=O)C[C@@H](C)N(C)C(=O)[C@H](C(C)C)N(C)C(=O)C2(CCCC2)NC(=O)[C@@H]2CCCN2C(=O)[C@H](CCc2ccc(C(F)(F)F)c(Cl)c2)NC(=O)CN(C)C(=O)[C@H](CC2CC2)N(C)C(=O)CN(C)C(=O)CN(C)C1=O [Compound 930] (cyclo([Ac5c][NMeV][NMedβ3hAla][NMeL]I[Sar][Sar][NMeAla(cPr)][Sar][hPhe(3-Cl-4-CF3)]P))	39 nM	100 to 500 nM
CC[C@H](C)[C@@H]1NC(=O)[C@H](CC(C)C)N(C)C(=O)C[C@@H](C(=O)N2CCCCC2)N(C)C(=O)[C@H](C2CCCCC2)N(C)C(=O)C2(CC2)NC(=O)[C@@H]2CCCN2C(=O)[C@H](CCc2ccc(C(F)(F)F)c(Cl)c2)NC(=O)CN(C)C(=O)[C@H](CC2CCCCC2)N(C)C(=O)CN(C)C(=O)CN(C)C1=O [Compound 1845] ([NMeL]I[Sar][Sar][NMeCha][Sar][hPhe(3-Cl-4-CF3)]P[Ac3c][NMeChg][NMeD]-Piperidide; lactam N-11)	0.84 nM	100 to 500 nM
CC[C@H](C)[C@@H]1NC(=O)[C@H](C)N(C)C(=O)C[C@@H](C(=O)N2CCCCC2)N(C)C(=O)[C@H](C2CCCCC2)N(C)C(=O)C2(CCCC2)NC(=O)[C@@H]2CCCN2C(=O)[C@H](CCc2ccc(C)cc2)NC(=O)CN(C)C(=O)[C@H](CC2CCCCC2)N(C)C(=O)CN(C)C(=O)CN(C)C1=O [Compound 1055] ([NMeA]I[Sar][Sar][NMeCha][Sar][X33]P[Ac5c][NMeChg][NMeD]-Piperidide; lactam N-11)	2.2 nM	100 to 500 nM
CC[C@H](C)[C@@H]1NC(=O)[C@H](CC(C)C)N(C)C(=O)C[C@@H](C)NC(=O)[C@H](C(C)C)N(C)C(=O)C2(CCCC2)NC(=O)[C@@H]2CCCN2C(=O)[C@H](CCc2ccc(C(F)(F)F)c(Cl)c2)NC(=O)CN(C)C(=O)[C@H](Cc2ccc(C)cc2)N(C)C(=O)CN(C)C(=O)CN(C)C1=O [Compound 1632] (cyclo([Ac5c][NMeV][d(β3hA)][NMeL]I[Sar][Sar][NMePhe(4-Me)][Sar][hPhe(3-Cl-4-CF3)]P))	2.9 nM	100 to 500 nM
CC[C@H](C)[C@@H]1NC(=O)[C@H](CC(C)C)N(C)C(=O)C[C@@H](C)N(C)C(=O)[C@H](C(C)C)N(C)C(=O)C2(CCCC2)NC(=O)[C@@H]2CCCN2C(=O)[C@H](CCc2ccc(C(F)(F)F)c(Cl)c2)NC(=O)CN(C)C(=O)[C@H](Cc2ccc(Br)cc2)N(C)C(=O)CN(C)C(=O)CN(C)C1=O [Compound 1590] (cyclo([Ac5c][NMeV][NMedβ3hAla][NMeL]I[Sar][Sar][NMePhe(4-Br)][Sar][hPhe(3-Cl-4-CF3)]P))	3.2 nM	50 to 100 nM
CC[C@H](C)[C@@H]1NC(=O)[C@H](CC(F)(F)F)N(C)C(=O)C[C@@H](C(=O)N2C3CCC2COC3)N(C)C(=O)[C@H](C2CCCCC2)N(C)C(=O)C2(CCCC2)NC(=O)[C@@H]2CCCN2C(=O)[C@H](CCc2ccc(C(F)(F)F)c(Cl)c2)NC(=O)CN(C)C(=O)[C@H](CC2CCCC2)N(C)C(=O)CN(C)C(=O)CN(C)C1=O [Compound 1057] ([NMeAbu(4,4,4-F3)]I[Sar][Sar][NMeAla(cPent)][Sar][hPhe(3-Cl-4-CF3)]P[Ac5c][NMeChg][NMeD]-{3Oxa8azabicyclo(3.2.1)octane}; lactam N-11)	1.2 nM	100 to 500 nM
CC[C@H](C)[C@@H]1NC(=O)[C@H](C2CCC2)N(C)C(=O)C[C@@H](C(=O)N2C3CCC2COC3)N(C)C(=O)[C@H](C2CCCCC2)N(C)C(=O)C2(CCCC2)NC(=O)[C@@H]2CCCN2C(=O)[C@H](CCc2ccc(C(F)(F)F)c(Cl)c2)NC(=O)CN(C)C(=O)[C@H](CC2CCCC2)N(C)C(=O)CN(C)C(=O)CN(C)C1=O [Compound 461] ([NMeGly(cBu)]I[Sar][Sar][NMeAla(cPent)][Sar][hPhe(3-Cl-4-CF3)]P[Ac5c][NMeChg][NMeD]-{3Oxa8azabicyclo(3.2.1)octane}; lactam N-11)	1.2 nM	100 to 500 nM
CCCOC[C@H]1C(=O)N(C)CC(=O)N[C@@H](CCc2ccc(C(F)(F)F)c(Cl)c2)C(=O)N2CCC[C@H]2C(=O)NC2(CCCC2)C(=O)N(C)[C@@H](C2CCCCC2)C(=O)N(C)[C@H](C(=O)N2CCCC2)CC(=O)N(C)[C@@H](CC)C(=O)N[C@@H]([C@@H](C)CC)C(=O)N(C)CC(=O)N(C)CC(=O)N1C [Compound 1929] ([NMeAbu]I[Sar][Sar][NMeS](Propyl)[Sar][hPhe(3-Cl-4-CF3)]P[Ac5c][NMeChg][NMeD]-Pyrrolidide; lactam N-11)	0.61 nM	100 to 500 nM
